Results on 22 compounds are retold here after patent US10010547B2 (CASCADIAN THERAPEUTICS, INC., priority 2014, dated 2018).

In assay [1] the target is Chk-1 kinase (Homo sapiens (Human), UniProt O14757). Nature of the assay: Chk-1 Kinase Inhibiting Activity (33P-ATP filter assay, CHKtide substrate). Conditions: against Chk-1 kinase; read-out: IC50. It is filed as biochemical. Summed up: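 Full-length N-terminal GST-tagged human Chk-1 from insect cells, 0.5 nM final, with 20 μM peptide substrate and 33P-ATP in HEPES pH 7.5 buffer with 1% DMSO. Reaction ran 120 minutes at room temperature; incorporated radioactivity captured on P81 filters and counted for IC50.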
Chain of Chk-1 kinase (O14757 whole entry): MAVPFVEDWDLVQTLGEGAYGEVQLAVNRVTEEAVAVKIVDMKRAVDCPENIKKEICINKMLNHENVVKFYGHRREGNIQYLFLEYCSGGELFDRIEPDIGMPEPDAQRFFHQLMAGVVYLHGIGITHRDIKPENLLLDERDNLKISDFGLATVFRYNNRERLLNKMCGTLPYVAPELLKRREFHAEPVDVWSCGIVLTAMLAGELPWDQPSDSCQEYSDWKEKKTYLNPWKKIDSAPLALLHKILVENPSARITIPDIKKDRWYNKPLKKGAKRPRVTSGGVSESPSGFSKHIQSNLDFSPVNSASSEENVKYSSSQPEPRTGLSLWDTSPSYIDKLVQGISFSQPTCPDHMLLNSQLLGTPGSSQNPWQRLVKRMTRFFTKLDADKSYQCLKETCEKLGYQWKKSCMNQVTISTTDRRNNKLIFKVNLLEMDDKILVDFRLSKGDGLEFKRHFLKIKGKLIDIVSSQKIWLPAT

Assay [2] concerns MIA PaCa-2 cells. Put plainly: Gemcitabine Combination Cell Assay (Cell Titer Glo). Conditions: for IC50: Homo sapiens; for 10xLS: approximate concentration of Chk1 inhibitor that results in a 10-fold reduction in the IC50 of gemcitabine alone; for 2xLS: approximate concentration of Chk1 inhibitor that results in a two-fold reduction in the IC50 of gemcitabine alone. Format: cell-based. Summed up:
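MIA PaCa-2 cells were treated 72 h with half-log dilutions of Chk1 inhibitor (top 3000 nM) and gemcitabine (top 100 nM), alone and in full matrix; viability by CellTiter-Glo luminescence. IC50s from four-parameter fit; Chk1 inhibitor concentrations giving two- and ten-fold lowering of gemcitabine IC50 were estimated.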

The mark [3] stands for this setting: Chk1 inhibitor alone, MIA PaCa-2 cells, 72 h, read-out: Chk1 IC50.

Where a name gives a salt, the structure may show the parent alone. Read-outs that look alike come from different tables or passages of the source.

As to `COc1cc(N2CCNCC2)cc(F)c1-c1cc(Nc2cnc(C#N)cn2)n[nH]1` [Example 116, 5-[[5-(2-fluoro-6-methoxy-4-piperazin-1-yl-phenyl)-1H-pyrazol-3-yl]amino]pyrazine-2-carbonitrile], the IC50 in assay [1] is 0.077 nM. Also, in assay [2] (setting [3]), the IC50 was determined as 209 nM. In assay [2] (MIA PaCa-2 cells, 72 h), the “10xLS” value was determined as 100 nM and the “2xLS” value worked out at 3 nM.

On to `COc1cc(C2CCN(CCO)CC2)ccc1-c1cc(Nc2cnc(C#N)cn2)n[nH]1` [Example 99, 5-[[5-[4-[1-(2-hydroxyethyl)-4-piperidyl]-2-methoxy-phenyl]-1H-pyrazol-3-yl]amino]pyrazine-2-carbonitrile], for which the half-maximal inhibitory concentration (IC50) in assay [1] turned out to be 0.15 nM. Moreover, the IC50 in assay [2] (setting [3]) was determined as 233 nM. Further, in assay [2] (MIA PaCa-2 cells, 72 h), the “10xLS” value amounted to 30 nM and the “2xLS” value is below 3 nM.

`COc1cc(O[C@H]2CCN(C)C2)ccc1-c1cc(Nc2cnc(C#N)cn2)n[nH]1` [Example 42, 5-[[5-[2-methoxy-4-[(3S)-1-methylpyrrolidin-3-yl]oxy-phenyl]-1H-pyrazol-3-yl]amino]pyrazine-2-carbonitrile]: the IC50 in assay [1] is 0.21 nM. Also, in assay [2] (setting [3]), the concentration for half-maximal inhibition (IC50) stood at 73 nM. Moreover, in assay [2] (MIA PaCa-2 cells, 72 h), the “10xLS” value was below 30 nM and the “2xLS” value is listed as below 3 nM.

With `COc1cc(NCc2ccccc2)ccc1-c1cc(Nc2cnc(C#N)cn2)n[nH]1` [Example 2, 5-[5-(4-benzylamino-2-methoxy-phenyl)-1H-pyrazol-3-ylamino]-pyrazine-2-carbonitrile], in assay [1], the IC50 was determined as 2.7 nM. In addition, the IC50 in assay [2] (setting [3]) is 1410 nM. In assay [2] (MIA PaCa-2 cells, 72 h), the “10xLS” value is reported as 1000 nM and the “2xLS” value stood at 100 nM.

Turning to `COc1cc(CN[C@H](C)CN2CCOCC2)ccc1-c1cc(Nc2cnc(C#N)cn2)n[nH]1` [Example 18, 5-[[5-[2-methoxy-4-[[[(1R)-1-methyl-2-morpholino-ethyl]amino]methyl]phenyl]-1H-pyrazol-3-yl]amino]pyrazine-2-carbonitrile], the IC50 in assay [1] is 0.17 nM. The IC50 in assay [2] (setting [3]) was determined as 1610 nM. Moreover, in assay [2] (MIA PaCa-2 cells, 72 h), the “10xLS” value is recorded as around 200 nM and the “2xLS” value is given as around 5 nM.

As to `COc1cc(CN[C@H](C)c2ccc(F)cc2)ccc1-c1cc(Nc2cnc(C#N)cn2)n[nH]1` [Example 7, 5-[5-(4-{[(R)-1-(4-fluoro-phenyl)-ethylamino]-methyl}-2-methoxy-phenyl)-1H-pyrazol-3-ylamino]-pyrazine-2-carbonitrile], in assay [1], the IC50 turned out to be 0.1 nM. Moreover, the IC50 in assay [2] (setting [3]) amounted to 208 nM. In addition, in assay [2] (MIA PaCa-2 cells, 72 h), the “10xLS” value is given as around 200 nM and the “2xLS” value was 10 nM.

Consider `COc1cc(NCC2CCN(C)CC2)ccc1-c1cc(Nc2cnc(C#N)cn2)n[nH]1` [Example 107, 5-[[5-[2-Methoxy-4-[(1-methyl-4-piperidyl)methylamino]phenyl]-1H-pyrazol-3-yl]amino]pyrazine-2-carbonitrile hydrochloride], for which the IC50 in assay [1] is 0.081 nM. Besides, in assay [2] (MIA PaCa-2, 72 h, read-out: Chk1 IC50 (nM)), the half-maximal inhibitory concentration (IC50) was 160 nM. For the same compound, in assay [2] (MIA PaCa-2 cells, 72 h), the “10xLS” value was determined as 100 nM and the “2xLS” value turned out to be 3 nM.

Consider `COc1cc(CN2CCOCC2)ccc1-c1cc(Nc2cnc(C#N)cn2)n[nH]1` [Example 102, 5-[[5-[2-methoxy-4-(morpholinomethyl)phenyl]-1H-pyrazol-3-yl]amino]pyrazine-2-carbonitrile], for which the concentration for half-maximal inhibition (IC50) in assay [1] was determined as 0.16 nM; in assay [2] (setting [3]) it was 957 nM. In assay [2] (MIA PaCa-2 cells, 72 h), the “10xLS” value is reported as 300 nM. The “2xLS” value in assay [2] (MIA PaCa-2 cells, 72 h) is on record as 10 nM.

As to `COc1cc(C2CCNCC2)ccc1-c1cc(Nc2cnc(C#N)cn2)n[nH]1` [Example 20, 5-[[5-[2-methoxy-4-(4-piperidyl)phenyl]-1H-pyrazol-3-yl]amino]pyrazine-2-carbonitrile], in assay [1], the half-inhibitory concentration (IC50) was 0.29 nM. Also, the IC50 in assay [2] (setting [3]) was 1110 nM. Further, in assay [2] (MIA PaCa-2 cells, 72 h), the “10xLS” value was 100 nM and the “2xLS” value is given as around 5 nM.

Turning to `COc1cc(NC2CCN(C)CC2)ccc1-c1cc(Nc2cnc(C#N)cn2)n[nH]1` [Example 110, 5-[[5-[2-methoxy-4-[(1-methyl-4-piperidyl)amino]phenyl]-1H-pyrazol-3-yl]amino]pyrazine-2-carbonitrile], the half-maximal inhibitory concentration (IC50) in assay [1] worked out at 0.0069 nM. Also, the 50% inhibitory concentration (IC50) in assay [2] (setting [3]) came out at 192 nM. In assay [2] (MIA PaCa-2 cells, 72 h), the “10xLS” value came out at 100 nM and the “2xLS” value worked out at 3 nM.

For the compound `CCN1CCN(c2ccc(-c3cc(Nc4cnc(C#N)cn4)n[nH]3)c(OC)c2)CC1` [Example 80, 5-[[5-[4-(4-ethylpiperazin-1-yl)-2-methoxy-phenyl]-1H-pyrazol-3-yl]amino]pyrazine-2-carbonitrile], in assay [1], the IC50 was found to be 0.19 nM. For the same compound, the IC50 in assay [2] (setting [3]) stood at 36 nM. Also, in assay [2] (MIA PaCa-2 cells, 72 h), the “10xLS” value amounted to 10 nM and the “2xLS” value is below 3 nM.

With `COc1cc(C2CCNCC2)c(F)cc1-c1cc(Nc2cnc(C#N)cn2)n[nH]1` [Example 58, 5-[[5-[5-fluoro-2-methoxy-4-(4-piperidyl)phenyl]-1H-pyrazol-3-yl]amino]pyrazine-2-carbonitrile], the IC50 was 0.54 nM in assay [1] and 676 nM in assay [2] (setting [3]). Moreover, the “10xLS” value in assay [2] (MIA PaCa-2 cells, 72 h) is 300 nM. The “2xLS” value in assay [2] (MIA PaCa-2 cells, 72 h) is given as 30 nM.

On to `COc1cc(CN2CCCC2)ccc1-c1cc(Nc2cnc(C#N)cn2)n[nH]1` [Example 101, 5-[[5-[2-methoxy-4-(pyrrolidin-1-ylmethyl)phenyl]-1H-pyrazol-3-yl]amino]pyrazine-2-carbonitrile], for which the IC50 in assay [1] came out at 0.055 nM; in assay [2] (setting [3]), 199 nM. Also, the “10xLS” value in assay [2] (MIA PaCa-2 cells, 72 h) was below 100 nM. In addition, the “2xLS” value in assay [2] (MIA PaCa-2 cells, 72 h) turned out to be 3 nM.

Take `COc1cc(CN(C)CCN2CCOCC2)ccc1-c1cc(Nc2cnc(C#N)cn2)n[nH]1` [Example 15, 5-[[5-[2-methoxy-4-[[methyl(2-morpholinoethyl)amino]methyl]phenyl]-1H-pyrazol-3-yl]amino]pyrazine-2-carbonitrile]: in assay [1], the concentration for half-maximal inhibition (IC50) turned out to be 0.3 nM. In addition, the IC50 in assay [2] (setting [3]) came out at 2210 nM. In assay [2] (MIA PaCa-2 cells, 72 h), the “10xLS” value is recorded as around 3000 nM and the “2xLS” value is around 5 nM.

Turning to `COc1cc(CNCC2CC2)ccc1-c1cc(Nc2cnc(C#N)cn2)n[nH]1` [Example 130, 5-[[5-[4-[(cyclopropylmethylamino)methyl]-2-methoxy-phenyl]-1H-pyrazol-3-yl]amino]pyrazine-2-carbonitrile], the half-inhibitory concentration (IC50) in assay [1] was determined as 0.025 nM. Besides, in assay [2] (setting [3]), the IC50 came to 142 nM. Further, in assay [2] (MIA PaCa-2 cells, 72 h), the “10xLS” value is recorded as below 100 nM and the “2xLS” value was found to be 3 nM.

`COc1cc(CO[C@@H]2CCN(C(C)C)C2)ccc1-c1cc(Nc2cnc(C#N)cn2)n[nH]1` [Example 141, 5-[[5-[4-[[(3R)-1-isopropylpyrrolidin-3-yl]oxymethyl]-2-methoxy-phenyl]-1H-pyrazol-3-yl]amino]pyrazine-2-carbonitrile]: in assay [1], the IC50 amounted to 0.019 nM. In assay [2] (setting [3]), the IC50 is 970 nM. Moreover, in assay [2] (MIA PaCa-2 cells, 72 h), the “10xLS” value is reported as below 300 nM and the “2xLS” value was below 10 nM.

With `CCN1CCC(Nc2ccc(-c3cc(Nc4cnc(C#N)cn4)n[nH]3)c(OC)c2)CC1` [Example 111, 5-[[5-[4-[(1-ethyl-4-piperidyl)amino]-2-methoxy-phenyl]-1H-pyrazol-3-yl]amino]pyrazine-2-carbonitrile], the 50% inhibitory concentration (IC50) in assay [1] is 0.0052 nM. In addition, the concentration for half-maximal inhibition (IC50) in assay [2] (setting [3]) stood at 184 nM. Moreover, in assay [2] (MIA PaCa-2 cells, 72 h), the “10xLS” value came out at 100 nM and the “2xLS” value is recorded as below 3 nM.

As to `COc1cc(C2CCN(C)CC2)c(Cl)cc1-c1cc(Nc2cnc(C#N)cn2)n[nH]1` [Example 67, 5-[[5-[5-chloro-2-methoxy-4-(1-methyl-4-piperidyl)phenyl]-1H-pyrazol-3-yl]amino]pyrazine-2-carbonitrile], the IC50 in assay [1] stood at 1.8 nM. For the same compound, the half-inhibitory concentration (IC50) in assay [2] (setting [3]) is 1320 nM. Also, in assay [2] (MIA PaCa-2 cells, 72 h), the “10xLS” value is listed as 1000 nM and the “2xLS” value is listed as 100 nM.

With `COc1cc(N(C)CC2CCN(C(C)C)CC2)ccc1-c1cc(Nc2cnc(C#N)cn2)n[nH]1` [Example 148, 5-[[5-[4-[(1-isopropyl-4-piperidyl)methyl-methyl-amino]-2-methoxy-phenyl]-1H-pyrazol-3-yl]amino]pyrazine-2-carbonitrile], the 50% inhibitory concentration (IC50) in assay [1] is 0.031 nM. In assay [2] (setting [3]), the 50% inhibitory concentration (IC50) turned out to be 254 nM. Further, in assay [2] (MIA PaCa-2 cells, 72 h), the “10xLS” value was below 100 nM and the “2xLS” value is on record as below 3 nM.

As to `COc1cc(C2CCN(C)CC2)ccc1-c1cc(Nc2ccc(C#N)c(F)c2)n[nH]1` [Example 30, 2-fluoro-4-[[5-[2-methoxy-4-(1-methyl-4-piperidyl)phenyl]-1H-pyrazol-3-yl]amino]benzonitrile], the concentration for half-maximal inhibition (IC50) was 17 nM in assay [1] and above 3000 nM in assay [2] (setting [3]). Besides, the “10xLS” value in assay [2] (MIA PaCa-2 cells, 72 h) was above 3000 nM. Moreover, the “2xLS” value in assay [2] (MIA PaCa-2 cells, 72 h) is on record as 1000 nM.

In the case of `COc1cc(C2CCN(C)CC2)c(F)cc1-c1cc(Nc2cnc(C#N)cn2)n[nH]1` [Example 32, 5-[[5-[5-fluoro-2-methoxy-4-(1-methyl-4-piperidyl)phenyl]-1H-pyrazol-3-yl]amino]pyrazine-2-carbonitrile], the IC50 in assay [1] is 0.26 nM. Besides, in assay [2] (setting [3]), the IC50 was 784 nM. Also, in assay [2] (MIA PaCa-2 cells, 72 h), the “10xLS” value is 300 nM and the “2xLS” value turned out to be 30 nM.

As to `COc1cc([C@@H]2CN(C(C)C)CCO2)ccc1-c1cc(Nc2cnc(C#N)cn2)n[nH]1` [Example 147, 5-[[5-[4-[(2R)-4-isopropylmorpholin-2-yl]-2-methoxy-phenyl]-1H-pyrazol-3-yl]amino]pyrazine-2-carbonitrile], in assay [1], the IC50 was 0.16 nM. Besides, in assay [2] (setting [3]), the IC50 was found to be 1200 nM. Further, in assay [2] (MIA PaCa-2 cells, 72 h), the “10xLS” value came out at 300 nM and the “2xLS” value came to 10 nM.
